Measurements as given in patent US6566088B1, “Prolyl-4-hydroxylases” (Board of Regents, The University of Texas System, priority 2001, dated 2003).
Where a name gives a salt, the structure may show the parent alone. Read-outs that look alike come from different tables or passages of the source. Blank lines part the entries; values can stand above or below the compound they belong to.

Assays:
human HIF-1a ODD peptide = human HIF-1a ODD peptide (Homo sapiens, UniProt Q16665, M561A/M568A); test: [35S]-pVHL pull-down prolyl hydroxylase assay with biotinylated HIF-1a ODD peptide; format: biochemical; settings: enzyme in vitro transcribed/translated in rabbit reticulocyte lysate; ascorbate, 2-oxoglutarate, FeSO4 present
HPH 2 = target: T1, HPH 2 (Homo sapiens, UniProt Q9GZT9, DEL76-177); test: Activity of purified recombinant HPH 2 on HIF-1a peptide substrate; format: biochemical; settings: additive added (CoCl2 in excess)
T1 construct: MBP (N); made in house; host or cells: E. coli BL21-CodonPlus-RIL
T1 sequence (Q9GZT9 with tags, fused parts or gaps DEL76-177): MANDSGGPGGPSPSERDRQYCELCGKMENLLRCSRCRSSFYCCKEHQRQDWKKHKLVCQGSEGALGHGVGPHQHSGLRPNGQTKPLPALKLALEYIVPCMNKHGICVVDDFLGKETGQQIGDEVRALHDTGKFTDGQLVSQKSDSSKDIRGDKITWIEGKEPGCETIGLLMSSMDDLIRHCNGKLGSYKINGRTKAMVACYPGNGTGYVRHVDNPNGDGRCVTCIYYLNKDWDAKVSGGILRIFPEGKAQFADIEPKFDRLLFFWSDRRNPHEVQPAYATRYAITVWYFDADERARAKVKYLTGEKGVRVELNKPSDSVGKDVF

[1] = system: prolyl-4-hydroxylase activity capable of modifying a proline-containing peptide derived from the ODD; settings: cited from earlier work

Compound: HPH 3: human HPH 1 paralog, Genbank BC001723
prolyl hydroxylase activity (pVHL association with the biotinylated peptide) (human HIF-1a ODD peptide): catalyze the hydroxylation

effect on activity of the HPH 2 enzyme (HPH 2): greatly stimulated
Compound: O=S(=O)([O-])[O-].[Fe+2] [FeSO4]

Compound: CC(=O)N(O)CCCCCNC(=O)CCC(=O)N(O)CCCCCNC(=O)CCC(=O)N(O)CCCCCN [deferoxamine mesylate]
prolyl-4-hydroxylase activity in extracts ([1]; extracts prepared in the presence of hypoxia mimics): greatly diminished

Compound: CoCl2
prolyl-4-hydroxylase activity in extracts [1]: greatly diminished
